Reference: the NIST ThermoML archive (doi:10.1021/je0501639)
± gives the expanded uncertainty stated by the source.

Key:
[1] = xn = mol fraction of the nth substance listed; settings: 100.8 kPa, Liquid; for viscosity: Falling or rolling sphere viscometry
[2] = refractive index (Na D-line) (dimensionless); xn = mol fraction of the nth substance listed; settings: 100.8 kPa, Liquid, Standard Abbe refractometry

CC(C)(C)O [2-methylpropan-2-ol] + CCO
Settings | mass density, 298.15 K [kg/m3] | mass density, 308.15 K [kg/m3] | mass density, 318.15 K [kg/m3] | refractive index, 298.15 K | refractive index, 308.15 K | refractive index, 318.15 K | viscosity, 298.15 K [mPa·s] | viscosity, 308.15 K [mPa·s] | viscosity, 318.15 K [mPa·s]
[1], x2 = 0 | 780.99 ± 0.31 | 770.7 ± 0.31 | 760.05 ± 0.32 | – | – | – | 4.43 ± 0.04 | 2.622 ± 0.027 | 1.708 ± 0.02
[1], x2 = 0.05 | 782.27 ± 0.3 | 772.23 ± 0.31 | 761.94 ± 0.31 | – | – | – | 4.295 ± 0.039 | 2.587 ± 0.026 | 1.73 ± 0.02
[1], x2 = 0.1 | 782.82 ± 0.3 | 772.95 ± 0.3 | 762.82 ± 0.31 | – | – | – | 4.135 ± 0.037 | 2.536 ± 0.025 | 1.719 ± 0.019
[1], x2 = 0.15 | 783.19 ± 0.29 | 773.6 ± 0.3 | 763.53 ± 0.3 | – | – | – | 3.949 ± 0.035 | 2.463 ± 0.025 | 1.698 ± 0.019
[1], x2 = 0.2 | 783.47 ± 0.29 | 774.03 ± 0.29 | 764.14 ± 0.3 | – | – | – | 3.752 ± 0.033 | 2.374 ± 0.024 | 1.662 ± 0.019
[1], x2 = 0.25 | 783.65 ± 0.29 | 774.34 ± 0.29 | 764.59 ± 0.3 | – | – | – | 3.552 ± 0.032 | 2.277 ± 0.023 | 1.618 ± 0.018
[1], x2 = 0.3 | 783.81 ± 0.28 | 774.62 ± 0.29 | 765.01 ± 0.29 | – | – | – | 3.348 ± 0.03 | 2.18 ± 0.022 | 1.568 ± 0.018
[1], x2 = 0.35 | 783.94 ± 0.28 | 774.87 ± 0.28 | 765.41 ± 0.29 | – | – | – | 3.134 ± 0.028 | 2.082 ± 0.021 | 1.515 ± 0.017
[1], x2 = 0.4 | 784.03 ± 0.28 | 775.07 ± 0.28 | 765.74 ± 0.29 | – | – | – | 2.905 ± 0.026 | 1.978 ± 0.02 | 1.456 ± 0.017
[1], x2 = 0.45 | 784.11 ± 0.27 | 775.29 ± 0.28 | 766.04 ± 0.28 | – | – | – | 2.668 ± 0.024 | 1.877 ± 0.019 | 1.395 ± 0.017
[1], x2 = 0.5 | 784.18 ± 0.27 | 775.45 ± 0.27 | 766.31 ± 0.28 | – | – | – | 2.462 ± 0.023 | 1.772 ± 0.019 | 1.332 ± 0.016
[1], x2 = 0.55 | 784.29 ± 0.27 | 775.61 ± 0.27 | 766.58 ± 0.28 | – | – | – | 2.272 ± 0.021 | 1.675 ± 0.018 | 1.272 ± 0.016
[1], x2 = 0.6 | 784.32 ± 0.26 | 775.68 ± 0.27 | 766.72 ± 0.27 | – | – | – | 2.097 ± 0.02 | 1.575 ± 0.017 | 1.213 ± 0.015
[1], x2 = 0.65 | 784.4 ± 0.26 | 775.77 ± 0.27 | 766.87 ± 0.27 | – | – | – | 1.934 ± 0.019 | 1.475 ± 0.017 | 1.153 ± 0.015
[1], x2 = 0.7 | 784.42 ± 0.26 | 775.85 ± 0.26 | 767.01 ± 0.27 | – | – | – | 1.782 ± 0.018 | 1.38 ± 0.016 | 1.092 ± 0.015
[1], x2 = 0.75 | 784.49 ± 0.26 | 775.93 ± 0.26 | 767.15 ± 0.27 | – | – | – | 1.644 ± 0.017 | 1.291 ± 0.016 | 1.032 ± 0.014
[1], x2 = 0.8 | 784.62 ± 0.25 | 776.07 ± 0.26 | 767.27 ± 0.26 | – | – | – | 1.518 ± 0.017 | 1.206 ± 0.015 | 0.974 ± 0.014
[1], x2 = 0.85 | 784.75 ± 0.25 | 776.18 ± 0.26 | 767.41 ± 0.26 | – | – | – | 1.4 ± 0.016 | 1.126 ± 0.015 | 0.919 ± 0.014
[1], x2 = 0.9 | 784.86 ± 0.25 | 776.28 ± 0.25 | 767.51 ± 0.26 | – | – | – | 1.285 ± 0.015 | 1.048 ± 0.014 | 0.862 ± 0.014
[1], x2 = 0.95 | 785.02 ± 0.25 | 776.4 ± 0.25 | 767.6 ± 0.26 | – | – | – | 1.188 ± 0.015 | 0.976 ± 0.014 | 0.805 ± 0.013
[2], x2 = 0 | – | – | – | 1.38481 ± 0.00033 | 1.3796 ± 0.00033 | 1.37416 ± 0.00033 | – | – | –
[2], x2 = 0.05 | – | – | – | 1.38427 ± 0.00033 | 1.37911 ± 0.00033 | 1.37378 ± 0.00033 | – | – | –
[2], x2 = 0.1 | – | – | – | 1.38367 ± 0.00033 | 1.37861 ± 0.00033 | 1.37336 ± 0.00033 | – | – | –
[2], x2 = 0.15 | – | – | – | 1.38294 ± 0.00032 | 1.37797 ± 0.00032 | 1.37284 ± 0.00032 | – | – | –
[2], x2 = 0.2 | – | – | – | 1.38213 ± 0.00032 | 1.37726 ± 0.00032 | 1.37224 ± 0.00032 | – | – | –
[2], x2 = 0.25 | – | – | – | 1.38123 ± 0.00032 | 1.37648 ± 0.00032 | 1.3715 ± 0.00032 | – | – | –
[2], x2 = 0.3 | – | – | – | 1.38027 ± 0.00032 | 1.37558 ± 0.00032 | 1.37072 ± 0.00032 | – | – | –
[2], x2 = 0.35 | – | – | – | 1.37923 ± 0.00032 | 1.37463 ± 0.00032 | 1.36984 ± 0.00032 | – | – | –
[2], x2 = 0.4 | – | – | – | 1.37813 ± 0.00032 | 1.3736 ± 0.00032 | 1.36891 ± 0.00032 | – | – | –
[2], x2 = 0.45 | – | – | – | 1.37698 ± 0.00032 | 1.37253 ± 0.00032 | 1.36791 ± 0.00032 | – | – | –
[2], x2 = 0.5 | – | – | – | 1.37576 ± 0.00032 | 1.37136 ± 0.00032 | 1.36682 ± 0.00032 | – | – | –
[2], x2 = 0.55 | – | – | – | 1.37449 ± 0.00032 | 1.37013 ± 0.00032 | 1.36567 ± 0.00032 | – | – | –
[2], x2 = 0.6 | – | – | – | 1.37312 ± 0.00032 | 1.36883 ± 0.00032 | 1.36442 ± 0.00032 | – | – | –
[2], x2 = 0.65 | – | – | – | 1.37171 ± 0.00032 | 1.36741 ± 0.00032 | 1.36304 ± 0.00032 | – | – | –
[2], x2 = 0.7 | – | – | – | 1.37018 ± 0.00032 | 1.36593 ± 0.00032 | 1.36162 ± 0.00032 | – | – | –
[2], x2 = 0.75 | – | – | – | 1.36859 ± 0.00032 | 1.36438 ± 0.00032 | 1.36007 ± 0.00032 | – | – | –
[2], x2 = 0.8 | – | – | – | 1.3669 ± 0.00032 | 1.36271 ± 0.00032 | 1.35848 ± 0.00032 | – | – | –
[2], x2 = 0.85 | – | – | – | 1.36515 ± 0.00031 | 1.36096 ± 0.00031 | 1.35677 ± 0.00031 | – | – | –
[2], x2 = 0.9 | – | – | – | 1.36332 ± 0.00031 | 1.35914 ± 0.00031 | 1.35498 ± 0.00031 | – | – | –
[2], x2 = 0.95 | – | – | – | 1.36137 ± 0.00031 | 1.3572 ± 0.00031 | 1.35308 ± 0.00031 | – | – | –
